Experimental data taken from patent US11607378B2, “Cosmetic composition comprising amide-based compound” (Neopharm Co., Ltd., priority 2020, dated 2023).

Experiments:
[1] = tested on: superoxide dismutase (SOD); assay: Effect on antioxidant activity (Superoxide Dismutase Activity Assay kit) after blue light; type: cell-based, human; settings: dermal fibroblasts, blue light 40 J/cm^2, sample 100 μM, 48 hours (FIG. 3)
Method: Effects of the samples of Examples and Comparative Examples of the present invention on a change in antioxidant activity after irradiation with blue light were confirmed.
Specifically, 1.5×10^5 (1 mL/well) dermal fibroblasts were seeded in a 6-well plate, and cultured for 24 hours. The dermal fibroblasts were exposed to blue light of 40 J/cm^2, and then treated with each of the samples (100 μM) of Examples and Comparative Examples. After 48 hours, the cells were recovered. The cells were dissolved in a cell lysis buffer (pH 7.4) containing 0.1 M Tris/HCl, 0.5% Triton X-100, 5 mM β-ME, and 0.1 mg/ml PMSF, and a supernatant separated by centrifugation was then analyzed using a Superoxide Dismutase Activity Assay kit (ab65354). Then, the absorbance was measured at a wavelength of 450 nm in a microplate reader.

[2] = tested on: carbonylated protein in artificial skin (EpiDermFT); assay: Effect on generation of carbonylated protein in artificial skin (DNPH assay, ICC staining); type: cell-based; settings: sample 0.3% 50 μL, blue light 40 J/cm^2, 48 hours, image J quantification (FIG. 4)
Method: An artificial skin (EpiDermFT™ from MatTek, Ashland, USA) was purchased, and then stabilized for 18 hours in an exclusive medium (EFT-400). 50 μL of each of the samples of Examples and Comparative Examples was applied to the artificial skin at a concentration of 0.3%, and then cultured for an hour. The artificial skin was exposed to blue light of 40 J/cm^2. After 48 hours, the artificial skin tissue was fixed in 10% formaldehyde, and embedded into paraffin. Thereafter, the tissue was microtomed into sections with a size of […]. Then, the microtomed tissue was used to confirm an effect on a change in activity of the carbonylated protein.
The tissue was stained by a DNPH assay using an immunocytochemical (ICC) staining method, and then observed in a fluorescent microscopic image. Thereafter, the microscopic image was digitized using an image J program.

p16^INK4A = assay: Expression level of p16^INK4A by Western blot after blue light; type: cell-based; settings: human dermal fibroblasts, blue light 40 J/cm^2, sample 100 μM, 24 hours, Western blot (FIG. 1)
Method: (1) An expression level of p16^INK4A was determined through Western blot in Examples and Comparative Examples of the present invention.
Specifically, human dermal fibroblasts were cultured in a 12-well plate containing a Dulbecco's modified eagle medium (DMEM) medium supplemented with 10% fetal bovine serum (FBS) to attach 1.5×10^5 (1 mL/well) human dermal fibroblasts to the 12-well plate. The human dermal fibroblasts were cultured for 24 hours, and the medium was replaced with a 1% fetal bovine serum medium. Then, the human dermal fibroblasts were exposed to blue light of 40 J/cm^2, and then treated with each of the samples (100 μM) of Examples and Comparative Examples. Thereafter, the cells were additionally cultured at 37° C. for 24 hours. Then, the cells were recovered, and each of these samples was subjected to Western blot to analyze an expression level of p16^INK4A in the dermal fibroblasts. Each of samples of Examples 1 and 2 and Comparative Example 1 including the amide-based compound having a structure shown in the following Table 1 was used as the sample.
The control of FIG. 1 represents an experimental group in which the cells were not treated with the sample, and (-) represents a result of the experimental group exposed to blue light.

[3] = tested on: reactive oxygen species (ROS) in dermal fibroblasts; assay: Effect of removing reactive oxygen species (ROS), DCF-DA fluorescence image; type: cell-based, human; settings: blue light 40 J/cm^2, sample 100 μM, 24 hours, DCF-DA (FIG. 2)
Method: An effect of removing the reactive oxygen species was determined for the samples of Examples and Comparative Examples of the present invention.
An image analysis for generation of reactive oxygen species (ROS) in the cells was carried out by seeding 1×10^5 (100 μL/well) dermal fibroblasts in a 12-well plate to which a cover slip was attached. The dermal fibroblasts were exposed to blue light of 40 J/cm^2, and then treated with each of the samples (100 μM) of Examples and Comparative Examples. Then, the cells were additionally cultured at 37° C. for 24 hours.
After 24 hours, 100 μM DCF-DA was put into each well, and the cells were cultured at 37° C. for 45 minutes. After the cells were washed with PBS, the stained cells were put on a microscope slide containing a mounting medium. A microscopic image was observed as a fluorescent microscopic image.

| Compound | SOD activity (which had been reduced by 32.64% by blue light) [1] | carbonylated protein (which had increased by 72.04% by blue light) [2] | expression level of p16^INK4A (p16^INK4A) | inhibiting the generation of reactive oxygen species and removing the generated reactive oxygen species [3] |
| --- | --- | --- | --- | --- |
| CCCCC(C)C(=O)NCCO (centres unmarked) [Example 2, N-(2-hydroxyethyl)-2-methyl-hexanamide] | 92.3% | 16.67% | 53.9% | – |
| CCCCC(CC)C(=O)NC(CO)CO (centres unmarked) [Comparative Example 1, N-(1,3-dihydroxypropan-2-yl)-2-ethylhexanamide, reference compound] | – | – | 120% | did not exhibit a significant effect |
